Results on 19 molecules are retold here after patent US7507730B2, “Substituted pyrazolo[1,5-a]pyrimidines as potassium channel activators” (Bristol-Myers Squibb Company, priority 2005, dated 2009).

By inhibition is commonly meant the share of the control response that was lost under treatment. Read a high inhibition as a response far below the control. As a reminder, the pIC50 is the IC50 on a negative log10 scale, so that one unit is a factor of ten.

pIC50: −log10 of the molar value.

Kv1.5, sequence (P22460 whole entry): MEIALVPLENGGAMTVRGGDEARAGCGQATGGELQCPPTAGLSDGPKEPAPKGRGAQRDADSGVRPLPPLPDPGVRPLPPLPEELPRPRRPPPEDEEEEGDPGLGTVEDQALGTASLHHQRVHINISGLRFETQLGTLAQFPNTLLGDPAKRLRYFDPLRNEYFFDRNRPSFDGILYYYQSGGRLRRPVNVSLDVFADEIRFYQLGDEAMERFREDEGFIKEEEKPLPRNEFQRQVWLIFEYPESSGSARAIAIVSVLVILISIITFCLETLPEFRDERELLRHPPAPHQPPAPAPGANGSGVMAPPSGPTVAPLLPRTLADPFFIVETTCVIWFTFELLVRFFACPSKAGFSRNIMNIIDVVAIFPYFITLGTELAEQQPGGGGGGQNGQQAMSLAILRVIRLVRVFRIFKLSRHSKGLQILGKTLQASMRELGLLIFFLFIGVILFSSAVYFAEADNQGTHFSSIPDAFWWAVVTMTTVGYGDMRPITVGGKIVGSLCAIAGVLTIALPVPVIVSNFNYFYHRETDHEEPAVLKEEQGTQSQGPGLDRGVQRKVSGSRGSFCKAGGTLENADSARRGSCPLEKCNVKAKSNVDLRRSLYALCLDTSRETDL

The target in the first assay is Kv1.5 (Homo sapiens, UniProt P22460). Kind of assay: Kv1.5 inhibition assay (IKur inhibitor assay per cited references). Conditions: at 0.3 μM. The class given is cell-based. The text has this:
Assays to determine the degree of activity of a compound as an IKur inhibitor are well known in the art and are described in references such as J. Gen. Physiol. Apr.; 101 (4):513-43, and Br. J. Pharmacol. 1995 May; 115(2):267-74.
In turn, `CC1=C(S(=O)(=O)c2ccccc2)C(c2ccc(F)cc2)n2nc(C(F)(F)F)cc2N1` (single isomer, unassigned) [Example 36 Isomer 2, 7-(4-Fluorophenyl)-5-methyl-6-(phenylsulfonyl)-2-(trifluoromethyl)-4,7-dihydropyrazolo[1,5-a]pyrimidine] had an inhibition at 0.3 µM of 49%.

`CC1=C(S(=O)(=O)NC2CCCCC2)C(c2ccc(Cl)c(Cl)c2)n2nc(C)cc2N1` (single isomer, unassigned) [Example 38 Isomer 2, N-Cyclohexyl-7-(3,4-dichlorophenyl)-2,5-dimethyl-4,7-dihydropyrazolo[1,5-a]pyrimidine-6-sulfonamide] displayed an inhibition at 0.3 µM of 27.6%.

Molecule `COc1cccc(S(=O)(=O)C2=C(C)Nc3cc(C(F)(F)F)nn3C2c2ccc(Cl)c(Cl)c2)c1` (single isomer, unassigned) [Example 39 Isomer 1, 7-(3,4-Dichlorophenyl)-6-(3-methoxyphenylsulfonyl)-5-methyl-2-(trifluoromethyl)-4,7-dihydropyrazolo[1,5-a]pyrimidine] registered an inhibition at 0.3 µM of 78.6%.

For the molecule `COc1cccc(S(=O)(=O)C2=C(C)Nc3cc(C(F)(F)F)nn3C2c2ccc(Cl)c(Cl)c2)c1` (single isomer, unassigned) [Example 39 Isomer 2, 7-(3,4-Dichlorophenyl)-6-(3-methoxyphenylsulfonyl)-5-methyl-2-(trifluoromethyl)-4,7-dihydropyrazolo[1,5-a]pyrimidine], the Kv1.5% inhibition is given as 79.6%.

`COc1cccc(S(=O)(=O)C2=C(C)Nc3cc(C(F)(F)F)nn3C2c2ccc(Cl)cc2)c1` (single isomer, unassigned) [Example 40 Isomer 1, 7-(4-Chlorophenyl)-6-(3-methoxyphenylsulfonyl)-5-methyl-2-(trifluoromethyl)-4,7-dihydropyrazolo[1,5-a]pyrimidine] had an inhibition at 0.3 µM of 94.4%.

In turn, `COc1cccc(S(=O)(=O)C2=C(C)Nc3cc(C(F)(F)F)nn3C2c2ccc(Cl)cc2)c1` (single isomer, unassigned) [Example 40 Isomer 2, 7-(4-Chlorophenyl)-6-(3-methoxyphenylsulfonyl)-5-methyl-2-(trifluoromethyl)-4,7-dihydropyrazolo[1,5-a]pyrimidine] returned a Kv1.5% inhibition of 74.4%.

Molecule `COc1cccc(S(=O)(=O)C2=C(C)Nc3cc(C(F)(F)F)nn3C2c2ccc(C)c(F)c2)c1` (single isomer, unassigned) [Example 41 Isomer 1, 7-(3-Fluoro-4-methylphenyl)-6-(3-methoxyphenylsulfonyl)-5-methyl-2-(trifluoromethyl)-4,7-dihydropyrazolo[1,5-a]pyrimidine] displayed an inhibition at 0.3 µM of 84.4%.

Regarding `COc1cccc(S(=O)(=O)C2=C(C)Nc3cc(C(F)(F)F)nn3C2c2ccc(C)c(F)c2)c1` (single isomer, unassigned) [Example 41 Isomer 2, 7-(3-Fluoro-4-methylphenyl)-6-(3-methoxyphenylsulfonyl)-5-methyl-2-(trifluoromethyl)-4,7-dihydropyrazolo[1,5-a]pyrimidine], the Kv1.5% inhibition was 85.8%.

As for `CC1=C(S(=O)(=O)c2ccc(Cl)cc2)C(c2ccc(C)c(F)c2)n2nc(C(F)(F)F)cc2N1` (single isomer, unassigned) [Example 42 Isomer 1, 6-(4-Chlorophenylsulfonyl)-7-(3-fluoro-4-methylphenyl)-5-methyl-2-(trifluoromethyl)-4,7-dihydropyrazolo[1,5-a]pyrimidine], at 0.3 µM the inhibition was 94.5%.

Turning to `CC1=C(S(=O)(=O)c2ccc(Cl)cc2)C(c2ccc(C)c(F)c2)n2nc(C(F)(F)F)cc2N1` (single isomer, unassigned) [Example 42 Isomer 2, 6-(4-Chlorophenylsulfonyl)-7-(3-fluoro-4-methylphenyl)-5-methyl-2-(trifluoromethyl)-4,7-dihydropyrazolo[1,5-a]pyrimidine], the Kv1.5% inhibition is given as 92.9%.

For `CC1=C(S(=O)(=O)c2ccc(Cl)cc2)C(c2ccc(F)cc2)n2nc(C(F)(F)F)cc2N1` (single isomer, unassigned) [Example 43 Isomer 1, 6-(4-Chlorophenylsulfonyl)-7-(4-fluorophenyl)-5-methyl-2-(trifluoromethyl)-4,7-dihydropyrazolo[1,5-a]pyrimidine], the inhibition at 0.3 µM is 83.6%.

Regarding `CC1=C(S(=O)(=O)c2ccc(Cl)cc2)C(c2ccc(F)cc2)n2nc(C(F)(F)F)cc2N1` (single isomer, unassigned) [Example 43 Isomer 2, 6-(4-Chlorophenylsulfonyl)-7-(4-fluorophenyl)-5-methyl-2-(trifluoromethyl)-4,7-dihydropyrazolo[1,5-a]pyrimidine], the Kv1.5% inhibition was determined as 87.3%.

For the molecule `CC1=C(S(=O)(=O)c2ccc(Cl)cc2)C(C2CCCCC2)n2nc(C(F)(F)F)cc2N1` (single isomer, unassigned) [Example 44 Isomer 2, 6-(4-Chlorophenylsulfonyl)-7-cyclohexyl-5-methyl-2-(trifluoromethyl)-4,7-dihydropyrazolo[1,5-a]pyrimidine], at 0.3 µM the inhibition was 21.3%.

`CC1=C(S(=O)(=O)c2ccc(Cl)cc2)C(CC(C)C)n2nc(C(F)(F)F)cc2N1` (single isomer, unassigned) [Example 45 Isomer 2, 6-(4-Chlorophenylsulfonyl)-7-isobutyl-5-methyl-2-(trifluoromethyl)-4,7-dihydropyrazolo[1,5-a]pyrimidine] yielded an inhibition at 0.3 µM of 48%.

As to `COc1ccccc1S(=O)(=O)C1=C(C)Nc2cc(C(F)(F)F)nn2C1c1ccc(Cl)cc1` (single isomer, unassigned) [Example 46 Isomer 1, 7-(4-Chlorophenyl)-6-(2-methoxyphenylsulfonyl)-5-methyl-2-(trifluoromethyl)-4,7-dihydropyrazolo[1,5-a]pyrimidine], testing at 0.3 µM gave an inhibition of 78.1%.

The assay is the same for the next values; noted with them: read-out: Kv1.5 IC50.
Regarding `CC1=C(S(=O)(=O)c2ccccc2)C(c2ccc(F)cc2)n2nc(C(F)(F)F)cc2N1` (single isomer, unassigned) [Example 36 Isomer 1, 7-(4-Fluorophenyl)-5-methyl-6-(phenylsulfonyl)-2-(trifluoromethyl)-4,7-dihydropyrazolo[1,5-a]pyrimidine], the negative logarithm of the IC50 (pIC50) is 6.68.

Turning to `CC1=C(S(=O)(=O)NC2CCCCC2)C(c2ccc(Cl)c(Cl)c2)n2nc(C)cc2N1` (single isomer, unassigned) [Example 38 Isomer 1, N-Cyclohexyl-7-(3,4-dichlorophenyl)-2,5-dimethyl-4,7-dihydropyrazolo[1,5-a]pyrimidine-6-sulfonamide], the negative-log IC50 (pIC50) is 6.97.

For the molecule `CC1=C(S(=O)(=O)c2ccc(Cl)cc2)C(C2CCCCC2)n2nc(C(F)(F)F)cc2N1` (single isomer, unassigned) [Example 44 Isomer 1, 6-(4-Chlorophenylsulfonyl)-7-cyclohexyl-5-methyl-2-(trifluoromethyl)-4,7-dihydropyrazolo[1,5-a]pyrimidine], the pIC50 was 6.69.

Consider `CC1=C(S(=O)(=O)c2ccc(Cl)cc2)C(CC(C)C)n2nc(C(F)(F)F)cc2N1` (single isomer, unassigned) [Example 45 Isomer 1, 6-(4-Chlorophenylsulfonyl)-7-isobutyl-5-methyl-2-(trifluoromethyl)-4,7-dihydropyrazolo[1,5-a]pyrimidine], for which the pIC50 is 6.60.
